Experimental data published in patent US9242984B2, “Pyrazolyl derivatives as Syk inhibitors” (Merck Sharp & Dohme Corp., priority 2012, dated 2016).
Where two headings read alike, the source gives them in different places.

Biological target: T1, recombinant human Syk (GST-hSyk fusion protein) (Homo sapiens, UniProt P43405)
T1 construct: purchased Carna Biosciences 08-176
Experiment: Homogeneous Time-Resolved Fluorescence (HTRF) assay for the recombinant human Syk enzyme
Type: biochemical
Conditions: 10-dose titration, 25 μM ATP
Experimental: Syk inhibition may be determined using the following assay protocol:
Homogeneous Time-Resolved Fluorescence (HTRF) Assay for the Recombinant Human Syk Enzyme:
A recombinant GST-hSyk fusion protein was used to measure potency of compounds to inhibit human Syk activity. The recombinant human GST-Syk (Carna Biosciences #08-176) (5 pM final concentration) was incubated with various concentrations of the inhibitor diluted in DMSO (0.1% final concentration) for 10 minutes at room temperature in 15 mM Tris-HCl (pH 7.5), 0.01% tween 20, 2 mM DTT in 384 well plate format. To initiate the reaction the biotinylated substrate peptide (250 nM final concentration) that contains the phosphorylation site for Syk was added with magnesium (5 mM final concentration) and ATP (25 μM final concentration). Final volume of the reaction was 10 μL. Phosphorylation of the peptide was allowed to proceed for 45 minutes at room temperature. To quench the reaction and detect the phosphorylated product, 2 nM of a Europium-anti-phosphotyrosine antibody (Perkin Elmer #AD0161) and 70 nM SA-APC (Perkin-Elmer #CR130-100) were added together in 15 mM Tris pH 7.5, 40 mM EDTA, 0.01% tween 20. Final volume of the quenching solution was 10 μL. The resulting HTRF signal was measured after 30 minutes on an EnVision (Perkin-Elmer) reader using a time-resolved fluorescence protocol. IC50 was determined following 10-dose titration (10 μM to 0.508 nM) and four parameter logistic curve fitting using the Merck Assay Data Analyzer. The rhSyk activity (IC50) is expressed as +++(100 nM or less), ++(between 100 and 1000 nM), +(between 1 and 10 μM).

[1] = IC50 class, read-out: rhSYK Activity

IC50 [1] [nM]	IC50 (read-out: rhSYK IC50) [nM]	Structure (SMILES)
≤ 100	–	Cc1cc(Nc2nccc(C(F)(F)F)n2)cc(-c2cnn(CC(O)C(=O)O)c2)c1 (racemic) [Example 5.14, 2-hydroxy-3-[4-(3-methyl-5-{[4-(trifluoro-methyl)pyrimidin-2-yl]amino}-phenyl)-1H-pyrazol-1-yl]propanoic acid]
≤ 100	–	Cc1cc(Nc2nccc(C(F)(F)F)n2)cc(-c2cnn(CC(O)CO)c2)c1 (racemic) [Example 5.15, 3-[4-(3-methyl-5-{[4-(trifluoromethyl)-pyrimidin-2-yl]amino}-phenyl)-1H-pyrazol-1-yl]propane-1,2-diol]
≤ 100	–	Cc1cc(Nc2nccc(C(F)(F)F)n2)cc(-c2cnn(C(C)C(N)=O)c2)c1 (racemic) [Example 8.8, 2-[4-(3-methyl-5-{[4-(trifluoromethyl)-pyrimidin-2-yl]amino}phenyl)-1H-pyrazol-1-yl]propanamide]
≤ 100	–	Cc1cc(Nc2nccc(C(F)(F)F)n2)cc(-c2cnn(CC(C)(O)C(N)=O)c2)c1 (racemic) [Example 8.11, 2-hydroxy-2-methyl-3-[4-(3-methyl-5-{[4-(trifluorometh-yl)pyrimidin-2-yl]amino}-phenyl)-1H-pyrazol-1-yl]propanamide]
≤ 100	4.7	Cc1cc(Nc2ncc(F)c(C(F)F)n2)cc(-c2cnn([C@H]3CCC[C@H](O)[C@@H]3O)c2)c1 (relative stereo) [Example 10.12, 3-[4-(3-{[4-(difluoromethyl)-5-fluoro-pyrimidin-2-yl]amino}-5-methylphenyl)-1H-pyrazol-1-yl]cyclohexane-1,2-diol]
≤ 100	–	Cc1cc(Nc2nccc(C(F)(F)F)n2)cc(-c2cnn(C3CCNC(=O)CC3)c2)c1 (single isomer, unassigned) [14 (isomer 1)]
–	28	Cc1cc(Nc2nccc(C(F)(F)F)n2)cc(-c2cnn(C3CCNC(=O)CC3)c2)c1 (single isomer, unassigned) [14.1 (enantiomer 1)]
–	10.1	Cc1cc(Nc2nccc(C(F)(F)F)n2)cc(-c2cnn(C3CCNC(=O)CC3)c2)c1 (single isomer, unassigned) [14.1 (enantiomer 2)]
≤ 100	–	Cc1cc(Nc2nccc(C(F)(F)F)n2)cc(-c2cnn(CC3CNC(=O)O3)c2)c1 (single isomer, unassigned) [Example 2.4, 5-{[4-(3-methyl-5-{[4-(trifluoromethyl)-pyrimidin-2-yl]-amino}phenyl)-1H-pyrazol-1-yl]methyl}-1,3-oxazolidin-2-one]
≤ 100	31.2	Cc1cc(Nc2nccc(C(F)(F)F)n2)cc(-c2cnn(CC3CN(C)C(=O)O3)c2)c1 (single isomer, unassigned) [Example 3.1, 3-methyl-5-{[4-(3-methyl-5-{[4-(trifluoromethyl)pyrimidin-2-yl]amino}phenyl)-1H-pyrazol-1-yl]methyl}-1,3-oxazolidin-2-one]
≤ 100	–	Cc1cc(Nc2nccc(C(F)(F)F)n2)cc(-c2cnn(CC(O)C(F)(F)F)c2)c1 (single isomer, unassigned) [Example 3.44, 1,1,1-trifluoro-3-[4-(3-methyl-5-{[4-(trifluoromethyl)pyrimidin-2-yl]amino}phenyl)-1H-pyrazol-1-yl]propan-2-ol]
≤ 100	–	Cc1cc(Nc2nccc(C(F)(F)F)n2)cc(-c2cnn(CC(O)C(F)(F)F)c2)c1 (single isomer, unassigned) [Example 3.45, 1,1,1-trifluoro-3-[4-(3-methyl-5-{[4-(trifluoromethyl)pyrimidin-2-yl]amino}phenyl)-1H-pyrazol-1-yl]propan-2-ol]
≤ 100	1.1	Cc1cc(Nc2nccc(C(F)(F)F)n2)cc(-c2cnn(CC(O)C(N)=O)c2)c1 (single isomer, unassigned) [Example 7.1, (R or S)-2-hydroxy-3-[4-(3-methyl-5-{[4-(trifluoromethyl)pyrimidin-2-yl]amino}phenyl)-1H-pyrazol-1-yl]propanamide]
≤ 100	1	Cc1cc(Nc2nccc(C(F)(F)F)n2)cc(-c2cnn(CC(C)(O)C(N)=O)c2)c1 (single isomer, unassigned) [Example 8.1, (R or S) 2-hydroxy-2-methyl-3-[4-(3-methyl-5-{[4-(trifluoromethyl)pyrimidin-2-yl]amino}phenyl)-1H-pyrazol-1-yl]propanamide]
≤ 100	–	Cc1cc(Nc2nccc(C(F)(F)F)n2)cc(-c2cnn(CC(C)(O)C(N)=O)c2)c1 (single isomer, unassigned) [Example 8.3, 2-hydroxy-2-methyl-3-[4-(3-methyl-5-{[4-(trifluorometh-yl)pyrimidin-2-yl]amino}phenyl)-1H-pyrazol-1-yl]propanamide]
≤ 100	–	Cc1cc(Nc2nccc(C(F)(F)F)n2)cc(-c2cnn(CC(C)(O)C(N)=O)c2)c1 (single isomer, unassigned) [Example 8.14, 2-hydroxy-2-methyl-3-[4-(3-methyl-5-{[4-(trifluorometh-yl)pyrimidin-2-yl]amino}phenyl)-1H-pyrazol-1-yl]propanamide]
≤ 100	–	Cc1cc(Nc2nccc(C(F)(F)F)n2)cc(-c2cnn(CC(C)(O)C(N)=O)c2)c1 (single isomer, unassigned) [Example 8.15, 2-hydroxy-2-methyl-3-[4-(3-methyl-5-{[4-(trifluorometh-yl)pyrimidin-2-yl]amino}phenyl)-1H-pyrazol-1-yl]propanamide]
≤ 100	7.4	Cc1cc(Nc2nccc(C(F)(F)F)n2)cc(-c2cnn(C3CCCC(O)C3O)c2)c1 (single isomer, unassigned) [Example 10.1, (R or S) 3-[4-(3-methyl-5-{[4-(trifluoromethyl)pyrimidin-2-yl]amino}phenyl)-1H-pyrazol-1-yl]cyclohexane-1,2-diol]
≤ 100	3.7	Cc1cc(Nc2nccc(C(F)F)n2)cc(-c2cnn(C3CCCC(O)C3O)c2)c1 (single isomer, unassigned) [Example 10.4, 3-[4-(3-{[4-(difluoromethyl)pyrimidin-2-yl]amino}-5-methylphenyl)-1H-pyrazol-1-yl]cyclohexane-1,2-diol]
≤ 100	5.24	Cc1cc(Nc2nccc(C(F)F)n2)cc(-c2cnn(C3CCCC(O)C3O)c2)c1 (single isomer, unassigned) [Example 10.5, 3-[4-(3-{[4-(difluoromethyl)pyrimidin-2-yl]amino}-5-methylphenyl)-1H-pyrazol-1-yl]cyclohexane-1,2-diol]
≤ 100	1.3	Cc1cc(Nc2nccc(C(F)F)n2)cc(-c2cnn(C3CCCC(O)C3O)c2)c1 (single isomer, unassigned) [Example 10.6, 3-[4-(3-{[4-(difluoromethyl)pyrimidin-2-yl]amino}-5-methylphenyl)-1H-pyrazol-1-yl]cyclohexane-1,2-diol]
≤ 100	0.7	Cc1cc(Nc2nccc(C(F)F)n2)cc(-c2cnn(C3CCCC(O)C3O)c2)c1 (single isomer, unassigned) [Example 10.7, 3-[4-(3-{[4-(difluoromethyl)pyrimidin-2-yl]amino}-5-methylphenyl)-1H-pyrazol-1-yl]cyclohexane-1,2-diol]
≤ 100	3.5	Cc1cc(Nc2ncc(F)c(C(F)F)n2)cc(-c2cnn([C@@H]3CCC[C@@H](O)[C@H]3O)c2)c1 (single isomer, unassigned) [Example 10.11, 3-[4-(3-{[4-(difluoromethyl)-5-fluoro-pyrimidin-2-yl]amino}-5-methylphenyl)-1H-pyrazol-1-yl]cyclohexane-1,2-diol]
≤ 100	–	Cc1cc(Nc2nccc(C(F)(F)F)n2)cc(-n2cc(C(C)(O)c3ccc(C(=O)O)cc3)cn2)c1 (single isomer, unassigned) [Example 19.7, 4-{1-hydroxy-1-[1-(3-methyl-5-{[4-(trifluoromethyl)pyrimidin-2-yl]amino}phenyl)-1H-pyrazol-4-yl]ethyl}benzoic acid]
≤ 100	–	Cc1cc(Nc2nccc(C(F)(F)F)n2)cc(-n2cc(C(C)(O)c3ccc(C(=O)O)cc3)cn2)c1 (single isomer, unassigned) [Example 19.8, 4-{1-hydroxy-1-[1-(3-methyl-5-{[4-(trifluoromethyl)pyrimidin-2-yl]amino}phenyl)-1H-pyrazol-4-yl]ethyl}benzoic acid]
≤ 100	1.7	Cc1cc(Nc2cc(C(F)(F)F)ccn2)nc(-c2cnn(CC(C)(O)CC#N)c2)c1 (single isomer, unassigned) [Example 20.1, (R or S)-3-Hydroxy-3-methyl-4-(4-(4-methyl-6-((4-(trifluoromethyl)pyridin-2-yl)amino)pyridin-2-yl)-1H-pyrazol-1-yl)butanenitrile]
≤ 100	3.66	Cc1cc(Nc2nccc(C(F)(F)F)n2)cc(-c2cnn(CC(C)(O)CO)c2)c1 (single isomer, unassigned) [Example 21.1, 2-Methyl-3-(4-(3-methyl-5-((4-(trifluoromethyl)pyrimidin-2-yl)amino)phenyl)-1H-pyrazol-1-yl)propane-1,2-diol]
